Test results taken from patent US10624913B2, “Diagnostics and methods for treatment of non-alcoholic hepatic steatosis and hepatic steatohepatitis, and prevention of complications thereof” (VOLANT HOLDINGS GMBH, priority 2011, dated 2020).
Where a name gives a salt, the structure may show the parent alone.

Assays:
[1] = system: patients with multiple manifestations of MetS; assay: Treatment comparison of RYGB, Brake or atorvastatin (Lipitor), each added to standard of care (Example 3); format: in vivo, human; conditions: for LDL percent change: from baseline
From the text: FIG. 20. […] All patients were given 10 gm Brake™ once Daily, orally, 4 hrs prior to their main meal Pertinent demographic and clinical data were retrieved from medical records for all patients, and shown in FIG. 21. Variables included age, gender, body weight, lipid panel (low-density lipoprotein [LDL], high-density lipoprotein [HDL], triglycerides [TG], and total cholesterol [TC]), HbA1c, and liver function tests (aspartate aminotransferase [AST] and alanine aminotransferase [ALT]). Patients were followed monthly for up to one year to assess changes in the above stated variables. […] From the beginning, the patients who began the study with abnormal findings were separated from the patients with initially normal values and those with abnormal findings were further analyzed to define the magnitude of change as well as the percent change from baseline pre-therapy. Descriptive statistics were used in analyzing the baseline characteristics of each cohort. In addition to counts of how many patients had values above threshold, all descriptive characteristics are reported for each group as percentages and mean values, or where appropriate, the binary distribution percentages. […] This testing was applied to case and control cohorts: (a) using data for all treated patients, (b) using data for only those with abnormal range baselines (c) using cases where the initial value was within the normal range for the laboratory. Data were subsequently analyzed for percent change by biomarker from both of these two perspectives. Comparisons between groups were performed by mixed analysis of variances with a post hoc correction for multiple comparisons to analyze differences between treatments. Data are presented as mean±standard deviation (unless otherwise specified). A p<0.05 was considered evidence of significant change. All statistical analyses were conducted using SAS version 9.4 (SAS institute, Cary, N.C.).

Hepatitis C virus = assay: Hepatitis C patient cases: viral load; format: in vivo, human; conditions: Patient E1 on combination; words
Method: Case 1: A Hepatitis C Patient with Moderate Viral Load Treated with Brake™ Alone, with the Goal to Evaluate the Secondary Antiviral Impact of Improving the Hepatic Steatosis
Patient M1 was a person with a normal BMI.
They were not on Hepatitis C treatment since 2007; no antiviral drugs in the 3 years prior to Brake™ therapy. Treatment Course: Aphoeline Brake™ (formulation II) was added to their treatment at their second visit.
A Hepatitis C Patient with Combination Treatment of Brake™ and pegIFN/Riba, a Test of the Ability of Combinations to Reduce Viral Load Over that of pegIFN/Riba Alone
After two months with only moderate viral load response to this increased dosage, the patient had the addition of 10 gm per day of Aphoeline Brake™ added to their maximal dose pegIFN/Riba regimen.
Case 3: A Hepatitis C Patient with Advanced Cirrhosis, Treated with Brake™ Alone, a Test of the Ability to Control Hepatic Steatosis in the Face of Minimal Action on the Viral Load
Patient L1 is a Overweight (5′3″ 202 lb) but not overtly T2D […] with Hepatitis C genotype 1a since ˜2002. They had previously been treated with pegIFN/Riba but had been considered a failure in 2005. They have been untreated for Hepatitis C since that time. […] Their bilirubin was 1.5 when seen and they were on the liver transplant list. Their chronic medications included spironolactone, rifaximin, and nexium. […]

[2] = system: metabolic syndrome / cardiovascular risk (FS index, CV index); assay: Cross comparison of FS index and CV index in treated patients (Example 2); format: in vivo, human; conditions: before, at 6 and 12 months, added to SoC; words
Method: Here we compare the same patients using FS index and CV index, in order to establish concordance in the risk scoring. We also include patients with MIs as examples of patients with CV events. For each of these patients, the FS index was calculated and the CV index was calculated, using an electronic spreadsheet designed for this purpose, and with the goal to evaluate concordance in the risk scoring. We also include patients with MIs as examples of patients with CV events.
To assess changes in metabolic syndrome, patient characteristics were analyzed using the FS Index.(44) Briefly, the FS index is a method for assessing cardiovascular risk associated with the glucose supply side in metabolic syndrome and T2D patients. The FS index is obtained from the individual patient's biological parameters, wherein a FS index value of greater than 60 is indicative that the individual is in need of therapy for metabolic syndrome or at risk for at least one cardiovascular complication associated with metabolic syndrome.

[3] = system: ileal brake (PYY, motilin); conditions: ileal infusions in different amounts; words; cited from earlier work
[4] = system: patients with incident AF; assay: Longitudinal cohort study of atrial fibrillation patients with or without warfarin; format: in vivo, human; conditions: adjusted for age and CHADS2; 95% CI 0.85, 2.13; not statistically significant
Method: We performed a longitudinal, cohort study with pharmacy and medical claims from 1997 to 2008 from a local health maintenance organization. Participants were identified with incident AF irrespective of warfarin status and followed through their duration within the database. Three clinical outcome measures were assessed including stroke, myocardial infarction, and bleeding. A neural net model was developed to identify patients at high risk of clinical event and defined to be an ‘enriched’ patient. The model defines the enrichment based on the top 10 minimum mean square error (MMSE) output parameters that describe the three clinical outcomes. The MMSE ranks the parameters in order from best to worst predictability when modeling the outputs. Predictors and outcome measures were ascertained with cox proportional hazards models.

[5] = decline from pre-treatment baseline, added to SoC, FIG. 21

Structure (SMILES): CC(C)c1c(C(=O)Nc2ccccc2)c(-c2ccccc2)c(-c2ccc(F)cc2)n1CC[C@@H](O)C[C@@H](O)CC(=O)O (relative stereo) [atorvastatin, [R—(R*,R*)]-2-(4-fluorophenyl)-β,δ-dihydroxy-5-(l-methylethyl)-3-phenyl-4-[(phenylamino)-carbonyl]-1H-pyrrole-1-heptanoic acid; calcium salt (2:1) trihydrate]
- Total cholesterol decline ([1]; abnormal baseline cases, 6 and 12 months of treatment): 3.2%
- Body weight decline ([1]; at 12 months): 2.6%
- ALT decline [1, 5]: essentially no decline
- AST decline [1, 5]: 3.5%
- Triglyceride concentration decline [1, 5]: 18%
- HDL values ([1]; high dose (40 mg) atorvastatin alone, words): decreased
- LDL percent change ([1]; high dose (40 mg) atorvastatin, FIG. 21): −22.7%
- LDL percent change ([1]; low dose atorvastatin, FIG. 21): −10.1%
- HDL values ([1]; low dose atorvastatin, words): increased
- Changes baseline to post treatment in triglycerides ([1]; words): negligible
- Changes in ALT and AST over pre treatment baseline ([1]; words, atorvastatin 10 mg or 40 mg): Only minor changes

Structure (SMILES): COc1cc(/C=C/C(=O)CC(=O)/C=C/c2ccc(O)c(OC)c2)ccc1O [curcumin]
- Hepatitis C virus status / control of viral load (Hepatitis C virus): loss of control for viral load

Structure (SMILES): CN(C)C(=N)N=C(N)N [metformin]
- Changes in FS index over pre-treatment baseline [2]: did not change the FS index

Structure (SMILES): CCCCCCCC/C=C\CCCCCCCC(=O)O [oleic acid]
- PYY levels [3]: dose-dependent increase
- motilin levels [3]: borderline decrease

Structure (SMILES): CC(=O)CC(c1ccccc1)c1c(O)c2ccccc2oc1=O (stereo not shown) [warfarin]
- risk of negative clinical outcomes (aHR) [4]: 1.35
